Among the data in US20070155730A1, “Benzodiazepine And Benzopiperazine Analog Inhibitors Of Histone Deacetylase” (METHYLGENE, INC., priority 2005, published 2007) are IC50 values, retold here.

This assay addresses histone deacetylase (HDAC). Briefly: Inhibition of Histone Deacetylase Enzymatic Activity. In kind it is biochemical. The conditions noted are these: substrate Boc-Lys(Ac)-AMC, Fluor-de-Lys developer, 37° C., 20 min; against one or more of HDAC-1 to HDAC-11, SirT1 to SirT7 (isoform not given); read-out: HDAC Inhibitory Activity (IC50). As to the method:
The following protocol is used to assay the compounds of the invention. In the assay, the buffer used is 25 mM HEPES, pH 8.0, 137 mM NaCl, 2.7 mM KCl, 1 mM MgCl2 and the substrate is Boc-Lys(Ac)-AMC in a 50 mM stock solution in DMSO. The enzyme stock solution is 4.08 μg/mL in buffer.
The compounds are pre-incubated (2 μl in DMSO diluted to 13 μl in buffer for transfer to assay plate) with enzyme (20 μl of 4.08 μg/mL) for 10 min at room temperature (35 μl pre-incubation volume). The mixture is pre-incubated for 5 min at room temperature. The reaction is started by bringing the temperature to 37° C. and adding 16 μl substrate. Total reaction volume is 50 μl. […] A plate is incubated in the dark for 10 min at room temperature before reading (λEX=360 nm, λEm=470 nm, Cutoff filter at 435 nm).
In the table, “A” indicates inhibitory activity at a concentration of <0.05 μM; “B” indicates inhibitory activity at a concentration >0.05 μM but <0.5 μM, “C” indicates inhibitory activity at >0.5 μM but <2 μM and “D” indicates inhibitory activity at a concentration of >2 μM but <10 μM.

Consider `O=C(CCOC1C[C@@H](C(=O)Nc2cccc3cccnc23)N(C(=O)OCc2ccccc2)C1)NO` (stereo in doubt) [Compound 112d, (2S,4S)-benzyl 4-(3-(hydroxyamino)-3-oxopropoxy)-2-(quinolin-8-ylcarbamoyl) pyrrolidine-1-carboxylate], for which the IC50 lay within 50 to 500 nM. For `CC(C)[C@@H]1Nc2ccc(C(=O)NO)cc2NC1=O` [Compound 4a, (S)-1,2,3,4-Tetrahydro-N-hydroxy-2-isopropyl-3-oxoquinoxaline-6-carboxamide], the half-inhibitory concentration (IC50) lay in the range of 2000 to 10000 nM. On to `CSCC[C@@H]1Nc2ccc(C(=O)NO)cc2NC1=O` [Compound 4b, (S)-1,2,3,4-tetrahydro-N-hydroxy-2-(2-(methylthio)ethyl)-3-oxoquinoxaline-6-carboxamide], for which the 50% inhibitory concentration (IC50) was 2000 to 10000 nM. As for `O=C(NO)c1ccc2c(c1)NC(=O)[C@H](Cc1c[nH]c3ccccc13)N2` [Compound 4c, (S)-2-((1H-indol-3-yl)methyl)-1,2,3,4-tetrahydro-N-hydroxy-3-oxoquinoxaline-6-carboxamide], the figure is 500 to 2000 nM; as for `CCC(C)[C@@H]1Nc2ccc(C(=O)NO)cc2NC1=O` (stereo partly drawn) [Compound 4d, (S)-2-sec-butyl-1,2,3,4-tetrahydro-N-hydroxy-3-oxoquinoxaline-6-carboxamide], 2000 to 10000 nM; as for `CC(C)[C@H]1Nc2ccc(C(=O)NO)cc2NC1=O` [Compound 4e, (R)-1,2,3,4-tetrahydro-N-hydroxy-2-isopropyl-3-oxoquinoxaline-6-carboxamide], 2000 to 10000 nM.

For the compound `O=C(NO)c1ccc2c(c1)NC(=O)[C@@H](Cc1c[nH]c3ccccc13)N2` [Compound 4f, (R)-2-((1H-indol-3-yl)methyl)-1,2,3,4-tetrahydro-N-hydroxy-3-oxoquinoxaline-6-carboxamide], the IC50 was 2000 to 10000 nM.

For the compound `O=C(NO)c1ccc2c(c1)NC(=O)[C@H](Cc1cn(C(c3ccccc3)(c3ccccc3)c3ccccc3)cn1)N2` [Compound 4g, (S)-1,2,3,4-tetrahydro-N-hydroxy-3-oxo-2-((1-trityl-1H-imidazol-4-yl)methyl)quinoxaline-6-carboxamide], the IC50 is 2000 to 10000 nM.

Take `CC(C)(C)Oc1ccc(C[C@@H]2Nc3ccc(C(=O)NO)cc3NC2=O)cc1` [Compound 4h, (S)-2-(4-tert-butoxybenzyl)-1,2,3,4-tetrahydro-N-hydroxy-3-oxoquinoxaline-6-carboxamide]: the IC50 was in the range of 2000 to 10000 nM. Take `O=C(NO)c1ccc2c(c1)NC(=O)[C@H](Cc1ccccc1)N2` [Compound 4i, (S)-2-Benzyl-1,2,3,4-tetrahydro-N-hydroxy-3-oxoquinoxaline-6-carboxamide]: the IC50 fell in the range of 2000 to 10000 nM. In the case of `CC(C)C[C@@H]1Nc2ccc(C(=O)NO)cc2NC1=O` [Compound 4k, (S)-1,2,3,4-Tetrahydro-N-hydroxy-2-isobutyl-3-oxoquinoxaline-6-carboxamide], the IC50 was in the range of 2000 to 10000 nM. Turning to `Cn1cc(C[C@@H]2Nc3ccc(C(=O)NO)cc3NC2=O)c2ccccc21` [Compound 4l, (S)-1,2,3,4-tetrahydro-N-hydroxy-2-((1-methyl-1-H-indol-3-yl)methyl)-3-oxoquinoxaline-6-carboxamide], the half-maximal inhibitory concentration (IC50) fell in the range of 500 to 2000 nM. On to `Nc1ccccc1NC(=O)c1ccc2c(c1)NC(=O)[C@H](Cc1c[nH]c3ccccc13)N2` [Compound 5c, (S)-2-((1H-indol-3-yl)methyl)-N-(2-aminophenyl)-1,2,3,4-tetrahydro-3-oxoquinoxaline-6-carboxamide], for which the concentration for half-maximal inhibition (IC50) lay in the range of 2000 to 10000 nM. As for `O=C(NO)c1ccc2c(c1)NC(=O)[C@H](Cc1ccc(O)cc1)N2` [Compound 6h, (S)-2-(4-Hydroxybenzyl)-1,2,3,4-tetrahydro-N-hydroxy-3-oxoquinoxaline-6-carboxamide], the figure is 2000 to 10000 nM; as for `COc1ccc(CN2c3ccc(C(=O)NO)cc3NC(=O)[C@@H]2C(C)C)cc1` [Compound 8, (S)-1-(4-Methoxybenzyl)-1,2,3,4-tetrahydro-N-hydroxy-2-isopropyl-3oxoquinoxaline-6-carboxamide], 500 to 2000 nM.

With `CC(C)[C@@H]1Nc2ccc(C(=O)NCCCCCC(=O)NO)cc2NC1=O` [Compound 13, (S)—N-(5-(Hydroxycarbamoyl)pentyl)-1,2,3,4-tetrahydro-2-isopropyl-3-oxoquinoxaline-6-carboxamide], the concentration for half-maximal inhibition (IC50) lay within 50 to 500 nM. As for `CC(C)[C@H]1C(=O)Nc2cc(C(=O)NO)ccc2N1Cc1ccc(F)cc1` [Compound 16a, (S)-1-(4-fluorobenzyl)-N-hydroxy-2-isopropyl-3-oxo-1,2,3,4-tetrahydroquinoxaline-6-carboxamide], the figure is 2000 to 10000 nM; as for `CC(C)[C@H]1C(=O)Nc2cc(C(=O)NO)ccc2N1Cc1ccc(O)cc1` [Compound 16b, (S)-1-(4-hydroxybenzyl)-1,2,3,4-tetrahydro-N-hydroxy-2-isopropyl-3-oxoquinoxaline-6-carboxamide], 500 to 2000 nM; as for `CC(C)[C@H]1C(=O)Nc2cc(C(=O)NO)ccc2N1CCCc1ccccc1` [Compound 16c, (S)-1,2,3,4-tetrahydro-N-hydroxy-2-isopropyl-3-oxo-1-(3-phenylpropyl)quinoxaline-6-carboxamide], 500 to 2000 nM.

For `CC(C)[C@H]1C(=O)Nc2cc(C(=O)NO)ccc2N1Cc1ccc(C(=O)O)cc1` [Compound 16d, 4-(((S)-7-(hydroxycarbamoyl)-2,3-dihydro-3-isopropyl-2-oxoquinoxalin-4(1H)-yl)methyl)benzoic acid], the 50% inhibitory concentration (IC50) is 2000 to 10000 nM. Then `CC(C)[C@H]1C(=O)Nc2cc(C(=O)NO)ccc2N1Cc1cccs1` [Compound 16e, (S)-1,2,3,4-tetrahydro-N-hydroxy-2-isopropyl-3-oxo-1-((thiophen-2-yl)methyl)quinoxaline-6-carboxamide], with 2000 to 10000 nM. Regarding `CC(C)[C@H]1C(=O)Nc2cc(C(=O)NO)ccc2N1Cc1ccc(C(=N)NO)cc1` [Compound 16f, (S)—N-hydroxy-1-(4-(N-hydroxycarbamimidoyl)benzyl)-2-isopropyl-3-oxo-1,2,3,4-tetrahydroquinoxaline-6-carboxamide], the IC50 lay in the range of 50 to 500 nM.

As to `CC(C)[C@H]1C(=O)Nc2cc(C(=O)NO)ccc2N1Cc1ccccc1` [Compound 16g, (S)-1-benzyl-1,2,3,4-tetrahydro-N-hydroxy-2-isopropyl-3-oxoquinoxaline-6-carboxamide], the concentration for half-maximal inhibition (IC50) lay in the range of 2000 to 10000 nM. As to `CC(C)[C@H]1C(=O)Nc2cc(C(=O)NO)ccc2N1Cc1ccc2ccccc2c1` [Compound 16h, (S)-1,2,3,4-tetrahydro-N-hydroxy-2-isopropyl-1-((naphthalen-3-yl)methyl)-3-oxoquinoxaline-6-carboxamide], the IC50 lay within 500 to 2000 nM. Then `CC(C)[C@H]1C(=O)Nc2cc(C(=O)NO)ccc2N1S(=O)(=O)c1ccccc1` [Compound 18a, (S)—N-hydroxy-2-isopropyl-3-oxo-1-(phenylsulfonyl)-1,2,3,4-tetrahydroquinoxaline-6-carboxamide], with 2000 to 10000 nM; and `CC(C)[C@H]1C(=O)Nc2cc(C(=O)NO)ccc2N1S(=O)(=O)c1ccc(-c2ccccc2)cc1` [Compound 18b, (S)—N-hydroxy-1-(biphenyl-4-sulfonyl)-2-isopropyl-3-oxo-1,2,3,4-tetrahydroquinoxaline-6-carboxamide], with 500 to 2000 nM. As to `Cc1cc(C)c(S(=O)(=O)N2c3ccc(C(=O)NO)cc3NC(=O)[C@@H]2C(C)C)c(C)c1` [Compound 18c, (S)—N-hydroxy-2-isopropyl-3-oxo-1-(2,4,6-trimethybenzenesulfonyl)-1,2,3,4-tetrahydroquinoxaline-6-carboxamide], the IC50 fell in the range of 2000 to 10000 nM.
